According to the supplement of paper PMC10307832:

Columns and labels:
Experiment in all cases: relative viability (nuclei count vs DMSO), 5 days (fraction); higher = more cells survive
Venetoclax + Foretinib = compound: CC1(C)CCC(CN2CCN(c3ccc(C(=O)NS(=O)(=O)c4ccc(NCC5CCOCC5)c([N+](=O)[O-])c4)c(Oc4cnc5[nH]ccc5c4)c3)CC2)=C(c2ccc(Cl)cc2)C1 [Venetoclax] + COc1cc2c(Oc3ccc(NC(=O)C4(C(=O)Nc5ccc(F)cc5)CC4)cc3F)ccnc2cc1OCCCN1CCOCC1 [Foretinib] (partner 0.25 µM)
In short: (§1)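 For relative viability, nuclei counts in treated wells were divided by those in vehicle wells. Lung cancer cell lines had been pin-tool dosed in 1536-well plates the day after seeding and cultured for 5 days, then fixed and stained in one step (final 0.05% Triton X-100, 1% formaldehyde, 1 ug/ml Hoechst) and imaged at 4×. Doses were one drug alone or a fixed anchor-drug dose plus five library-drug doses (not always all listed) in √10 steps, and values are duplicate-plate medians.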

Selumetinib + Olaparib = compound: Cn1cnc2c(F)c(Nc3ccc(Br)cc3Cl)c(C(=O)NOCCO)cc21 [Selumetinib] + O=C(c1cc(Cc2n[nH]c(=O)c3ccccc23)ccc1F)N1CCN(C(=O)C2CC2)CC1 [Olaparib] (partner 8 µM)
In short: as §1

Selumetinib + Tozasertib = compound: Cn1cnc2c(F)c(Nc3ccc(Br)cc3Cl)c(C(=O)NOCCO)cc21 [Selumetinib] + Cc1cc(Nc2cc(N3CCN(C)CC3)nc(Sc3ccc(NC(=O)C4CC4)cc3)n2)n[nH]1 [Tozasertib] (partner 0.1 µM)
In short: as §1

Venetoclax + Pictilisib = compound: CC1(C)CCC(CN2CCN(c3ccc(C(=O)NS(=O)(=O)c4ccc(NCC5CCOCC5)c([N+](=O)[O-])c4)c(Oc4cnc5[nH]ccc5c4)c3)CC2)=C(c2ccc(Cl)cc2)C1 [Venetoclax] + CS(=O)(=O)N1CCN(Cc2cc3nc(-c4cccc5[nH]ncc45)nc(N4CCOCC4)c3s2)CC1 [Pictilisib] (partner 1 µM)
In short: as §1

ABC-1
relative viability (Venetoclax + Foretinib; first compound 0.01 µM): 0.867
relative viability (Venetoclax + Foretinib; first compound 0.03162 µM): 1.22
relative viability (Venetoclax + Foretinib; first compound 0.1 µM): 0.976
relative viability (Venetoclax + Foretinib; first compound 0.3162 µM): 0.961
relative viability (Venetoclax + Foretinib; first compound 1 µM): 0.922
relative viability (Selumetinib + Olaparib; first compound 0.02 µM): 0.885
relative viability (Selumetinib + Olaparib; first compound 0.06325 µM): 0.726
relative viability (Selumetinib + Olaparib; first compound 0.2 µM): 0.737
relative viability (Selumetinib + Olaparib; first compound 0.6325 µM): 0.768
relative viability (Selumetinib + Tozasertib; first compound 0.02 µM): 0.161
relative viability (Selumetinib + Tozasertib; first compound 0.06325 µM): 0.157
relative viability (Selumetinib + Tozasertib; first compound 0.2 µM): 0.139
relative viability (Selumetinib + Tozasertib; first compound 0.6325 µM): 0.135
relative viability (Venetoclax + Pictilisib; first compound 0.01 µM): 0.786
relative viability (Venetoclax + Pictilisib; first compound 0.03162 µM): 0.778
relative viability (Venetoclax + Pictilisib; first compound 0.1 µM): 0.759
relative viability (Venetoclax + Pictilisib; first compound 0.3162 µM): 0.71
relative viability (Venetoclax + Pictilisib; first compound 1 µM): 0.699

NCI-H727
relative viability (Venetoclax + Foretinib; first compound 0.01 µM): 1.16
relative viability (Venetoclax + Foretinib; first compound 0.03162 µM): 0.719
relative viability (Venetoclax + Foretinib; first compound 0.1 µM): 0.834
relative viability (Venetoclax + Foretinib; first compound 0.3162 µM): 1.08
relative viability (Venetoclax + Foretinib; first compound 1 µM): 0.884
relative viability (Selumetinib + Olaparib; first compound 0.02 µM): 0.665
relative viability (Selumetinib + Olaparib; first compound 0.06325 µM): 0.558
relative viability (Selumetinib + Olaparib; first compound 0.2 µM): 0.383
relative viability (Selumetinib + Olaparib; first compound 0.6325 µM): 0.431
relative viability (Selumetinib + Tozasertib; first compound 0.02 µM): 0.403
relative viability (Selumetinib + Tozasertib; first compound 0.06325 µM): 0.357
relative viability (Selumetinib + Tozasertib; first compound 0.2 µM): 0.338
relative viability (Selumetinib + Tozasertib; first compound 0.6325 µM): 0.294
relative viability (Venetoclax + Pictilisib; first compound 0.01 µM): 0.354
relative viability (Venetoclax + Pictilisib; first compound 0.03162 µM): 0.419
relative viability (Venetoclax + Pictilisib; first compound 0.1 µM): 0.404
relative viability (Venetoclax + Pictilisib; first compound 0.3162 µM): 0.37
relative viability (Venetoclax + Pictilisib; first compound 1 µM): 0.398

NCI-H1666
relative viability (Venetoclax + Foretinib; first compound 0.01 µM): 0.889
relative viability (Venetoclax + Foretinib; first compound 0.03162 µM): 0.946
relative viability (Venetoclax + Foretinib; first compound 0.1 µM): 0.904
relative viability (Venetoclax + Foretinib; first compound 0.3162 µM): 0.915
relative viability (Venetoclax + Foretinib; first compound 1 µM): 0.943
relative viability (Selumetinib + Olaparib; first compound 0.02 µM): 0.722
relative viability (Selumetinib + Olaparib; first compound 0.06325 µM): 0.711
relative viability (Selumetinib + Olaparib; first compound 0.2 µM): 0.715
relative viability (Selumetinib + Olaparib; first compound 0.6325 µM): 0.686
relative viability (Selumetinib + Tozasertib; first compound 0.02 µM): 0.589
relative viability (Selumetinib + Tozasertib; first compound 0.06325 µM): 0.489
relative viability (Selumetinib + Tozasertib; first compound 0.2 µM): 0.528
relative viability (Selumetinib + Tozasertib; first compound 0.6325 µM): 0.554
relative viability (Venetoclax + Pictilisib; first compound 0.01 µM): 0.457
relative viability (Venetoclax + Pictilisib; first compound 0.03162 µM): 0.448
relative viability (Venetoclax + Pictilisib; first compound 0.1 µM): 0.42
relative viability (Venetoclax + Pictilisib; first compound 0.3162 µM): 0.439
relative viability (Venetoclax + Pictilisib; first compound 1 µM): 0.534

NCI-H2126
relative viability (Venetoclax + Foretinib; first compound 0.01 µM): 1.17
relative viability (Venetoclax + Foretinib; first compound 0.03162 µM): 1.21
relative viability (Venetoclax + Foretinib; first compound 0.1 µM): 0.784
relative viability (Venetoclax + Foretinib; first compound 0.3162 µM): 1.09
relative viability (Venetoclax + Foretinib; first compound 1 µM): 1.06
relative viability (Selumetinib + Olaparib; first compound 0.02 µM): 0.893
relative viability (Selumetinib + Olaparib; first compound 0.06325 µM): 0.833
relative viability (Selumetinib + Olaparib; first compound 0.2 µM): 0.813
relative viability (Selumetinib + Olaparib; first compound 0.6325 µM): 0.742
relative viability (Selumetinib + Tozasertib; first compound 0.02 µM): 0.784
relative viability (Selumetinib + Tozasertib; first compound 0.06325 µM): 0.741
relative viability (Selumetinib + Tozasertib; first compound 0.2 µM): 0.728
relative viability (Selumetinib + Tozasertib; first compound 0.6325 µM): 0.638
relative viability (Venetoclax + Pictilisib; first compound 0.01 µM): 0.482
relative viability (Venetoclax + Pictilisib; first compound 0.03162 µM): 0.538
relative viability (Venetoclax + Pictilisib; first compound 0.1 µM): 0.487
relative viability (Venetoclax + Pictilisib; first compound 0.3162 µM): 0.528
relative viability (Venetoclax + Pictilisib; first compound 1 µM): 0.488

NCI-H1793
relative viability (Venetoclax + Foretinib; first compound 0.01 µM): 0.769
relative viability (Venetoclax + Foretinib; first compound 0.03162 µM): 0.71
relative viability (Venetoclax + Foretinib; first compound 0.1 µM): 0.619
relative viability (Venetoclax + Foretinib; first compound 0.3162 µM): 0.79
relative viability (Venetoclax + Foretinib; first compound 1 µM): 0.607
relative viability (Selumetinib + Olaparib; first compound 0.02 µM): 0.765
relative viability (Selumetinib + Olaparib; first compound 0.06325 µM): 0.531
relative viability (Selumetinib + Olaparib; first compound 0.2 µM): 0.421
relative viability (Selumetinib + Olaparib; first compound 0.6325 µM): 0.39
relative viability (Selumetinib + Tozasertib; first compound 0.02 µM): 0.314
relative viability (Selumetinib + Tozasertib; first compound 0.06325 µM): 0.269
relative viability (Selumetinib + Tozasertib; first compound 0.2 µM): 0.235
relative viability (Selumetinib + Tozasertib; first compound 0.6325 µM): 0.221
relative viability (Venetoclax + Pictilisib; first compound 0.01 µM): 0.371
relative viability (Venetoclax + Pictilisib; first compound 0.03162 µM): 0.445
relative viability (Venetoclax + Pictilisib; first compound 0.1 µM): 0.328
relative viability (Venetoclax + Pictilisib; first compound 0.3162 µM): 0.241
relative viability (Venetoclax + Pictilisib; first compound 1 µM): 0.321

LCLC-103H
relative viability (Venetoclax + Foretinib; first compound 0.01 µM): 0.758
relative viability (Venetoclax + Foretinib; first compound 0.03162 µM): 0.782
relative viability (Venetoclax + Foretinib; first compound 0.1 µM): 0.698
relative viability (Venetoclax + Foretinib; first compound 0.3162 µM): 0.767
relative viability (Venetoclax + Foretinib; first compound 1 µM): 0.801
relative viability (Selumetinib + Olaparib; first compound 0.02 µM): 0.656
relative viability (Selumetinib + Olaparib; first compound 0.06325 µM): 0.703
relative viability (Selumetinib + Olaparib; first compound 0.2 µM): 0.66
relative viability (Selumetinib + Olaparib; first compound 0.6325 µM): 0.663
relative viability (Selumetinib + Tozasertib; first compound 0.02 µM): 0.514
relative viability (Selumetinib + Tozasertib; first compound 0.06325 µM): 0.458
relative viability (Selumetinib + Tozasertib; first compound 0.2 µM): 0.435
relative viability (Selumetinib + Tozasertib; first compound 0.6325 µM): 0.349
relative viability (Venetoclax + Pictilisib; first compound 0.01 µM): 0.686
relative viability (Venetoclax + Pictilisib; first compound 0.03162 µM): 0.566
relative viability (Venetoclax + Pictilisib; first compound 0.1 µM): 0.635
relative viability (Venetoclax + Pictilisib; first compound 0.3162 µM): 0.676
relative viability (Venetoclax + Pictilisib; first compound 1 µM): 0.619

COR-L 105
relative viability (Venetoclax + Foretinib; first compound 0.01 µM): 0.752
relative viability (Venetoclax + Foretinib; first compound 0.03162 µM): 0.78
relative viability (Venetoclax + Foretinib; first compound 0.1 µM): 1.15
relative viability (Venetoclax + Foretinib; first compound 0.3162 µM): 1
relative viability (Venetoclax + Foretinib; first compound 1 µM): 0.991
relative viability (Selumetinib + Olaparib; first compound 0.02 µM): 0.73
relative viability (Selumetinib + Olaparib; first compound 0.06325 µM): 0.727
relative viability (Selumetinib + Olaparib; first compound 0.2 µM): 0.687
relative viability (Selumetinib + Olaparib; first compound 0.6325 µM): 0.582
relative viability (Selumetinib + Tozasertib; first compound 0.02 µM): 0.364
relative viability (Selumetinib + Tozasertib; first compound 0.06325 µM): 0.316
relative viability (Selumetinib + Tozasertib; first compound 0.2 µM): 0.309
relative viability (Selumetinib + Tozasertib; first compound 0.6325 µM): 0.322
relative viability (Venetoclax + Pictilisib; first compound 0.01 µM): 0.409
relative viability (Venetoclax + Pictilisib; first compound 0.03162 µM): 0.526
relative viability (Venetoclax + Pictilisib; first compound 0.1 µM): 0.367
relative viability (Venetoclax + Pictilisib; first compound 0.3162 µM): 0.406
relative viability (Venetoclax + Pictilisib; first compound 1 µM): 0.468

HARA
relative viability (Venetoclax + Foretinib; first compound 0.01 µM): 0.916
relative viability (Venetoclax + Foretinib; first compound 0.03162 µM): 0.947
relative viability (Venetoclax + Foretinib; first compound 0.1 µM): 0.925
relative viability (Venetoclax + Foretinib; first compound 0.3162 µM): 0.891
relative viability (Venetoclax + Foretinib; first compound 1 µM): 0.886
relative viability (Selumetinib + Olaparib; first compound 0.02 µM): 0.768
relative viability (Selumetinib + Olaparib; first compound 0.06325 µM): 0.727
relative viability (Selumetinib + Olaparib; first compound 0.2 µM): 0.651
relative viability (Selumetinib + Olaparib; first compound 0.6325 µM): 0.466
relative viability (Selumetinib + Tozasertib; first compound 0.02 µM): 0.108
relative viability (Selumetinib + Tozasertib; first compound 0.06325 µM): 0.115
relative viability (Selumetinib + Tozasertib; first compound 0.2 µM): 0.111
relative viability (Selumetinib + Tozasertib; first compound 0.6325 µM): 0.102
relative viability (Venetoclax + Pictilisib; first compound 0.01 µM): 0.55
relative viability (Venetoclax + Pictilisib; first compound 0.03162 µM): 0.386
relative viability (Venetoclax + Pictilisib; first compound 0.1 µM): 0.396
relative viability (Venetoclax + Pictilisib; first compound 0.3162 µM): 0.451
relative viability (Venetoclax + Pictilisib; first compound 1 µM): 0.324

NCI-H2023
relative viability (Venetoclax + Foretinib; first compound 0.01 µM): 0.813
relative viability (Venetoclax + Foretinib; first compound 0.03162 µM): 0.924
relative viability (Venetoclax + Foretinib; first compound 0.1 µM): 1.14
relative viability (Venetoclax + Foretinib; first compound 0.3162 µM): 0.84
relative viability (Venetoclax + Foretinib; first compound 1 µM): 0.653
relative viability (Selumetinib + Olaparib; first compound 0.02 µM): 0.555
relative viability (Selumetinib + Olaparib; first compound 0.06325 µM): 0.467
relative viability (Selumetinib + Olaparib; first compound 0.2 µM): 0.454
relative viability (Selumetinib + Olaparib; first compound 0.6325 µM): 0.487
relative viability (Selumetinib + Tozasertib; first compound 0.02 µM): 0.362
relative viability (Selumetinib + Tozasertib; first compound 0.06325 µM): 0.317
relative viability (Selumetinib + Tozasertib; first compound 0.2 µM): 0.267
relative viability (Selumetinib + Tozasertib; first compound 0.6325 µM): 0.253
relative viability (Venetoclax + Pictilisib; first compound 0.01 µM): 0.259
relative viability (Venetoclax + Pictilisib; first compound 0.03162 µM): 0.234
relative viability (Venetoclax + Pictilisib; first compound 0.1 µM): 0.222
relative viability (Venetoclax + Pictilisib; first compound 0.3162 µM): 0.23
relative viability (Venetoclax + Pictilisib; first compound 1 µM): 0.227
